According to patent US20120094311A1, “GENE AND PROTEIN EXPRESSION PROFILES ASSOCIATED WITH THE THERAPEUTIC EFFICACY OF EGFR-TK INHIBITORS” (priority 2007, published 2012):

Tested on: tumor cells derived from NSCLC tumors of patients shown to be responsive to gefitinib
Assay: Xenograft array: SCID mice bearing patient-derived NSCLC tumors treated with IRESSA
Assay type: in vivo
Details: SCID mice injected with patient-derived NSCLC tumor cells; injected with 200 mg/kg of IRESSA
Method: Positive expression was also confirmed using a Xenograft array. To make this array, SCID mice were injected with tumor cells derived from NSCLC tumors of patients shown to be responsive to gefitinib (IRESSA®), and tumors were allowed to grow. The mice then were injected with 200 mg/kg of IRESSA®, and the mice were monitored to observe responsiveness to the drug.

COc1cc2ncnc(Nc3ccc(F)c(Cl)c3)c2cc1OCCCN1CCOCC1 [IRESSA, gefitinib]
tumors formed in the SCID mice after treatment: reduced or eliminated
